#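 Method: 48-hour compound exposure of cells in 96-well plates, five concentrations, linear interpolation of endpoints. TGI is the concentration that stops growth completely.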
# What was measured:
# Test in all cases: NCI anticancer screen, dose series, 48 h
# [1] = system: MDA-MB-231 breast
# [2] = system: HOP-92 NSCLC
# [3] = system: HOP-62 NSCLC
# [4] = system: MDA-MB-435
# [5] = system: HCT-15 colon
# [6] = system: BT-549 breast
# [7] = system: HL-60(TB) leukemia
# [8] = system: NCI-H460 lung
# [9] = system: SK-MEL-28 melanoma
# [10] = system: HCC-2998 colon
# [11] = system: A498 renal
# [12] = system: SF-539 CNS
# [13] = system: M14 melanoma
# [14] = system: IGROV1 ovarian
# [15] = system: CCRF-CEM leukemia
# [16] = system: SK-MEL-5 melanoma
# [17] = system: PC-3 prostate
# [18] = system: MCF7 breast
# [19] = system: CAKI-1 renal
# [20] = system: U251 CNS
# [21] = system: COLO 205 colon
# [22] = system: OVCAR-5 ovarian
# [23] = system: SF-268 CNS
# [24] = system: NCI-H226 lung
# [25] = system: SW-620 colon
# [26] = system: SNB-75 CNS
# [27] = system: LOX IMVI melanoma
# [28] = system: ACHN renal
# [29] = system: HT29 colon
# [30] = system: RXF 393 renal
# [31] = system: K-562 leukemia
# [32] = system: SK-OV-3 ovarian
# [33] = system: SR leukemia
# [34] = system: SK-MEL-2 melanoma
# [35] = system: RPMI-8226 leukemia
# [36] = system: DU-145 prostate
# [37] = system: OVCAR-8 ovarian
# [38] = system: NCI-H522 lung
# [39] = system: UACC-257 melanoma
# [40] = system: SNB-19 CNS
# [41] = system: MALME-3M melanoma
# [42] = system: HS 578T breast
# [43] = system: A549 NSCLC
# [44] = system: NCI-H23 lung
# [45] = system: 786-0 renal
# [46] = system: SN12C renal
# [47] = system: OVCAR-3 ovarian
# [48] = system: HCT-116 colon
# [49] = system: UACC-62 melanoma
# [50] = system: EKVX NSCLC
# [51] = system: NCI/ADR-RES ovarian
# [52] = system: MOLT-4 leukemia
# [53] = system: UO-31 renal
# [54] = system: MDA-N
# [55] = system: SF-295 CNS
# [56] = system: KM12 colon
# [57] = system: OVCAR-4 ovarian
# [58] = system: TK-10 renal
# [59] = system: T-47D breast
structure (smiles),measurement,setting,value
CCOP(=O)(OCC)/C(C#N)=C/c1cnc(C)[nH]1,TGI,[1],> 100 µM
same,TGI,[2],> 100 µM
same,TGI,[3],> 100 µM
same,TGI,[4],> 100 µM
same,TGI,[5],> 100 µM
same,TGI,[6],> 100 µM
same,TGI,[7],> 100 µM
same,TGI,[8],> 100 µM
same,TGI,[9],> 100 µM
same,TGI,[10],> 100 µM
same,TGI,[11],> 100 µM
same,TGI,[12],> 100 µM
same,TGI,[13],> 100 µM
same,TGI,[14],> 100 µM
same,TGI,[15],> 100 µM
same,TGI,[16],> 100 µM
same,TGI,[17],> 100 µM
same,TGI,[18],> 100 µM
same,TGI,[19],> 100 µM
same,TGI,[20],> 100 µM
same,TGI,[21],> 100 µM
same,TGI,[22],> 100 µM
same,TGI,[23],> 100 µM
same,TGI,[24],> 100 µM
same,TGI,[25],> 100 µM
same,TGI,[26],> 100 µM
same,TGI,[27],> 100 µM
same,TGI,[28],> 100 µM
same,TGI,[29],> 100 µM
same,TGI,[30],> 100 µM
same,TGI,[31],> 100 µM
same,TGI,[32],> 100 µM
same,TGI,[33],> 100 µM
same,TGI,[34],> 100 µM
same,TGI,[35],> 100 µM
same,TGI,[36],> 100 µM
same,TGI,[37],> 100 µM
same,TGI,[38],> 100 µM
same,TGI,[39],> 100 µM
same,TGI,[40],> 100 µM
same,TGI,[41],> 100 µM
same,TGI,[42],> 100 µM
same,TGI,[43],> 100 µM
same,TGI,[44],> 100 µM
same,TGI,[45],> 100 µM
same,TGI,[46],> 100 µM
same,TGI,[47],> 100 µM
same,TGI,[48],> 100 µM
same,TGI,[49],> 100 µM
same,TGI,[50],> 100 µM
same,TGI,[51],> 100 µM
same,TGI,[52],> 100 µM
same,TGI,[53],> 100 µM
same,TGI,[54],> 100 µM
same,TGI,[55],> 100 µM
same,TGI,[56],> 100 µM
same,TGI,[57],> 100 µM
same,TGI,[58],> 100 µM
Cc1nn2c(C(=O)N/N=C/c3ccccc3O)c(C)nc2s1,TGI,[1],> 100 µM
same,TGI,[2],> 100 µM
same,TGI,[3],> 100 µM
same,TGI,[4],> 100 µM
same,TGI,[5],> 100 µM
same,TGI,[6],> 100 µM
same,TGI,[7],> 100 µM
same,TGI,[8],> 100 µM
same,TGI,[9],> 100 µM
same,TGI,[10],> 100 µM
same,TGI,[11],> 100 µM
same,TGI,[12],> 100 µM
same,TGI,[13],> 100 µM
same,TGI,[14],> 100 µM
same,TGI,[15],> 100 µM
same,TGI,[16],> 100 µM
same,TGI,[18],> 100 µM
same,TGI,[19],> 100 µM
same,TGI,[20],> 100 µM
same,TGI,[21],> 100 µM
same,TGI,[22],> 100 µM
same,TGI,[23],> 100 µM
same,TGI,[24],> 100 µM
same,TGI,[25],> 100 µM
same,TGI,[26],> 100 µM
same,TGI,[27],> 100 µM
same,TGI,[28],> 100 µM
same,TGI,[29],> 100 µM
same,TGI,[30],> 100 µM
same,TGI,[31],> 100 µM
same,TGI,[36],> 100 µM
same,TGI,[37],> 100 µM
same,TGI,[38],> 100 µM
same,TGI,[39],> 100 µM
same,TGI,[40],> 100 µM
same,TGI,[41],> 100 µM
same,TGI,[42],> 100 µM
same,TGI,[43],> 100 µM
same,TGI,[44],> 100 µM
same,TGI,[45],> 100 µM
same,TGI,[46],> 100 µM
same,TGI,[47],90.6 µM
same,TGI,[48],> 100 µM
same,TGI,[49],> 100 µM
same,TGI,[50],> 100 µM
same,TGI,[51],> 100 µM
same,TGI,[52],> 100 µM
same,TGI,[53],> 100 µM
same,TGI,[54],> 100 µM
same,TGI,[55],> 100 µM
same,TGI,[56],> 100 µM
same,TGI,[57],> 100 µM
same,TGI,[58],> 100 µM
same,TGI,[59],> 100 µM
